Consider 1 molecule from patent US20250213560A1, “NITROGEN-CONTAINING HETEROCYCLIC COMPOUNDS HAVING PHENYL GROUP AND USES THEREOF” (BNH RESEARCH CO., LTD., priority 2022, published 2025).

Test [1] relates to APP/PS1 mice. Description: Hippocampal fEPSP I/O curve and LTP in Alzheimer's model mice. The test is classed as in vivo, mouse. The conditions noted are these: hippocampus CA1, Os pump ventricular infusion 3 μM. From the text:
Field recordings were made with a concentric bipolar electrode positioned in the stratum radiatum of the CA1 region using an extracellular glass pipette (3.5 M (2) filled with aCSF. Specifically, fEPSPs were evoked by Schaffer collateral (SC)/commissural fibers with a concentric bipolar electrode placed 200 to 300 μm from the recording pipette. Stimulation was delivered through a bipolar electrode (FHC, Bowdoin, ME, USA) placed in the Schaffer collateral-CA1 (SC). Te SC circuit was visualized using differential interference contrast (DIC) microscopy at 4× magnification and identified by the ability to evoke short and constant latency field excitatory postsynaptic potentials (fEPSPs) at CA1 synapses by SC input stimulation. In all fEPSP experiments, the test stimulation were measured prior to the beginning of all the experiments (30 μA) and a test-pulse stimulation strength that evokes 50% of the maximum fEPSP was used. Baseline synaptic responses was recorded for 30 minutes, and then long-term potentiation (LTP) was induced by high-frequency stimulation (HFS; 100 Hz, 4 trains, 1 s duration, 20 s inter-train interval). […]
Excitatory postsynaptic potential (EPSP) was recorded by the whole-cell patch clamp method using a patch clamp amplifier (molecular devices, USA). […] It was then recorded for 60 minutes (LTP). […]

Test [2] deals with APP/PS1 mice. Description: Barrel cortex TC potency and GABA/AMPA ratio in Alzheimer's model mice. The test is classed as in vivo, mouse. Here is the method: All electrophysiological experiments were conducted at 27 to 29° C. For electrophysiological experiments, electrodes with […] resistance were used and stimuli were applied to the ventral posteromedial nucleus (VPM) using a concentric bipolar electrode (FHC, Bowdoin, ME). The somatosensory cortex was identified by the presence of barrels under 4×magnification and differential interference contrast (DIC) optics, and by the ability to evoke short and constant latency field excitatory postsynaptic potentials (fEPSPs) by VPM stimulation. […]
For the minimal stimulation protocol (Potency), VB thalamic stimulation intensity was adjusted to find the lowest intensity that elicited a mixture of synaptic responses and failures. Failure rate was calculated as the number of failures/total number of trials. Potency was calculated as the mean EPSC peak amplitude excluding failures (see Chittajallu & Isaac, 2010, Emergence of cortical inhibition by coordinated sensory-driven plasticity at distinct synaptic loci, DOI: 10.1038/nn.2639; see Isaac et al., 1997, Silent Synapses during Development of Thalamocortical Inputs, https://doi.org/10.1016/S08966273 (00) 80267-6; and see Stevens & Wang, 1995, Facilitation and depression at single central synapses, DOI: 10.1016/08966273 (95) 90223-6). […]

The subject of the next test is HDAC 1 to 9, and 11. Description: HDAC catalytic activity assay (fluorogenic substrate, 10-dose IC50). The test is classed as biochemical. To be noted: 3-fold serial dilution starting at 100 μM, duplicates. Here is the method:
The compound was resuspended in 100 mM DMSO and tested in a 10-dose IC50 with 3-fold serial dilution starting at 100 μM against HDACs 1-9, and 11. As reference compounds, Trichostatin A (TSA) and TMP269 were tested in a 10-dose IC50 with 3-fold serial dilution starting at 10 μM or 1 μM.
10 μM Fluorogenic peptide from p53 residues 379-382 (RHKK (Ac) AMC) was used for the substrate for HDAC 1, 2, 3, and 6. 50 μM Fluorogenic HDAC Class2a Substrate (Trifluoroacetyl Lysine) was used for the substrate for HDAC 4, 5, 7, 9, and 11. 100 μM Fluorogenic peptide from p53 residues 379-382 (RHK (Ac) K (Ac) AMC) was used for the substrate for HDAC8.
IC50 values were calculated using the GraphPad Prism 4 program based on a sigmoidal dose-response equation and the blank (DMSO) value concentration was entered as 1.00E-12 M for curve fitting.
The experiments were performed in duplicates.

The structures appear in SMILES notation.

On to `C[C@H]1CC[C@@H](C(=O)O)CN1C(=O)Cc1ccc(-c2cncnc2)cc1` [BnH12003, (3R,6S)-6-methyl-1-(2-(4-(pyrimidin-5-yl)phenyl)acetyl) piperidine-3-carboxylic acid], for which, in the test on APP/PS1 mice [1], the “I/O curve of field EPSP (synaptic efficacy)” value is “synaptic efficacy was increased” and the “LTP of EPSP, excitatory SC pathway” value is “significantly increased”. Further, the “GABA/AMPA ratio (balance of excitation/inhibition)” value in the test with APP/PS1 mice [2] (barrel cortex layer 4, Os pump 3 μM) is “maintaining the balance of excitation/inhibition”. Also, the “excitatory TC synaptic potential (TC potency)” value in the test with APP/PS1 mice [2] (barrel cortex layer 4, Os pump, BnH12003 3 μM, solanezumab 200 μg) is “increased the excitatory TC synaptic potential”. Moreover, in the test on HDAC 1 to 9, and 11, the “inhibitory effect on HDAC catalytic activities (10-dose IC50)” value is recorded as “did not show any inhibitory effect”.
